ChEMBL document CHEMBL5550110, “An insight into the mechanistic role of (-)-Ampelopsin F from Vatica chinensis L. in inducing insulin secretion in pancreatic beta cells” (Bioorg Med Chem, 2024)
Calls of active or inactive are those of the source. The rule behind the calls is not given here.

Legend:
[1] = target: Dipeptidyl peptidase 4 (Mus musculus) (UniProt P28843); test: Inhibition of DPP4 in mouse Beta-TC6 cells assessed as reduction in AMC production at 50 uM measured every min by fluorescence plate reader assay relative to positive control; assay type: cell-based
[2] = Induction of GLUT2 expression in mouse Beta-TC6 cells assessed as fold increase at 50 uM incubated for 24 hrs by Western blotting analysis relative to control; assay type: functional
[3] = Induction of glucokinase expression in mouse Beta-TC6 cells assessed as fold increase at 50 uM incubated for 24 hrs by Western blotting analysis relative to control; assay type: functional
Beta-TC6 [4] = test: Induction of insulin secretion in mouse Beta-TC6 cells assessed as fold increase at 50 uM incubated for 24 hrs by ELISA relative to control; assay type: functional
Beta-TC6 [5] = test: Induction of calcium level in mouse Beta-TC6 cells assessed as fold increase at 50 uM incubated for 30 mins by Fura-2 AM staining based fluorescence microscopy analysis relative to control; assay type: functional; conditions: 0.5 h
[6] = target: Dipeptidyl peptidase 4 (Mus musculus) (UniProt P28843); test: Inhibition of DPP4 in mouse Beta-TC6 cells assessed as reduction in AMC production at 50 uM measured every min by fluorescence plate reader assay relative to control; assay type: cell-based
Beta-TC6 [7] = test: Cytotoxicity against mouse Beta-TC6 cells assessed as reduction in cell viability at 50 uM incubated for 24 hrs by MTT assay; assay type: toxicity, cell-based; conditions: beta-tc6, 24 h
Beta-TC6 [8] = test: Induction of mitochondrial membrane hyperpolarization in mouse Beta-TC6 cells at 50 uM after 24 hrs by JC-1 staining based fluorescence microscopy analysis; assay type: cell-based
Beta-TC6 [9] = test: Induction of mitochondrial membrane hyperpolarization in mouse Beta-TC6 cells at 0.9 uM after 24 hrs by JC-1 staining based fluorescence microscopy analysis; assay type: cell-based
Beta-TC6 [10] = test: Induction of calcium level in mouse Beta-TC6 cells assessed as fold increase at 0.1 uM incubated for 30 mins by Fura-2 AM staining based fluorescence microscopy analysis relative to control; assay type: functional; conditions: 0.5 h
[11] = Induction of glucokinase expression in mouse Beta-TC6 cells assessed as fold increase at 0.1 uM incubated for 24 hrs by Western blotting analysis relative to control; assay type: functional
Beta-TC6 [12] = test: Induction of insulin secretion in mouse Beta-TC6 cells assessed as fold increase at 0.1 uM incubated for 24 hrs by ELISA relative to control; assay type: functional
Beta-TC6 [13] = test: Induction of mitochondrial membrane hyperpolarization in mouse Beta-TC6 cells at 0.1 uM after 24 hrs by JC-1 staining based fluorescence microscopy analysis; assay type: cell-based

Chain of Dipeptidyl peptidase 4 (Mus musculus) (P28843 whole entry, looked up): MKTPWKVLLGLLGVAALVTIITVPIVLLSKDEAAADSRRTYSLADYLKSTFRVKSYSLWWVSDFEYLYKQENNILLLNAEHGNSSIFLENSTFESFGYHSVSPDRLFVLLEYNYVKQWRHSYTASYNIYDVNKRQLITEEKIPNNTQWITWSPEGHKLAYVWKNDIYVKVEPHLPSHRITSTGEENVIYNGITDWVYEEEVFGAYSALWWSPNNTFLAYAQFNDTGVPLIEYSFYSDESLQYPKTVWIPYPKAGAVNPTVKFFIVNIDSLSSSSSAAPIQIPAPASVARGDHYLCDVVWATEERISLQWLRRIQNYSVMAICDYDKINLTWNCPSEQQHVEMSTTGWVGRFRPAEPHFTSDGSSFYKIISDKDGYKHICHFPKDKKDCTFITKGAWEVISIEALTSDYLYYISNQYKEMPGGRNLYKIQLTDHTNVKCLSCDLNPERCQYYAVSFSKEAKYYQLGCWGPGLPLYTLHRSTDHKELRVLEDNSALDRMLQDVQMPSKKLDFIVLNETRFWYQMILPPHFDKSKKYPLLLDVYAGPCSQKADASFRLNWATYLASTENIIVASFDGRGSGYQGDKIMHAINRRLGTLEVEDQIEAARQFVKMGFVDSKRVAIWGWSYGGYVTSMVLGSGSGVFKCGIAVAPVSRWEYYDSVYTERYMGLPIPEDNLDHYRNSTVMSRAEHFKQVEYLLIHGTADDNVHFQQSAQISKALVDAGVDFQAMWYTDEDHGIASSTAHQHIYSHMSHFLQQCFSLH

SMILES: Oc1ccc([C@@H]2c3c(O)cc(O)cc3[C@H]3c4c(O)cc(O)cc4[C@H]2[C@@H]3c2ccc(O)cc2)cc1
- inhibition [1]: 85%
- fold change (FC) [2]: 1.5
- fold change (FC) [3]: 2.5
- fold change (FC) (Beta-TC6 [4]): 3.5
- fold change (FC) (Beta-TC6 [5]): 2
- inhibition [6]: 63%
- Activity (Beta-TC6 [7]): < 15%
- Activity (Beta-TC6 [8]): Active

SMILES: CC(C)[C@@H]1NC(=O)[C@H](C)OC(=O)[C@@H](C(C)C)NC(=O)[C@@H](C(C)C)OC(=O)[C@H](C(C)C)NC(=O)[C@H](C)OC(=O)[C@@H](C(C)C)NC(=O)[C@@H](C(C)C)OC(=O)[C@H](C(C)C)NC(=O)[C@H](C)OC(=O)[C@@H](C(C)C)NC(=O)[C@@H](C(C)C)OC1=O
- Activity (Beta-TC6 [9]): inactive

SMILES: COc1ccc(Cl)cc1C(=O)NCCc1ccc(S(=O)(=O)NC(=O)NC2CCCCC2)cc1 [GLYBURIDE]
- fold change (FC) (Beta-TC6 [10]): 2
- fold change (FC) [11]: 2
- fold change (FC) (Beta-TC6 [12]): 4
- Activity (Beta-TC6 [13]): Active
